In general, IC50 refers to the concentration that gives 50% inhibition.

The source of these data is patent US9458145B2, “Benzimidazole derivatives as bromodomain inhibitors” (Gilead Sciences, Inc., priority 2013, dated 2016).

Each structure is given as a SMILES string.

The target in one assay is BRD4-1 (Homo sapiens (Human), UniProt O60885). As to the kind of experiment: BRD4-1 Ligand KI assay (TR-FRET, Cy5 labeled ligand displacement). The assay is classed as binding.
Conditions: not given
On the procedure:
(§1) BRD4-1 Ligand KI and BRD4-2 Ligand KI Assays
(§2) Binding of the two tandem bromodomains, BRD4-I and BRD4-2, to a Cy5 labeled probe/ligand (Compound 1020-501) were measured using a homogeneous time resolved fluorescence resonance energy transfer (TR-FRET) assay.
(§3) The labeled ligand specifically binds BRD4-1 and BRD4-2 and can be displaced by a small molecule inhibitor that shares a similar or overlapping binding site. BRD4-I and BRD4-2 were expressed and purified from Escherichia coli as N-terminal His6, tagged proteins. A Eu-cryptate labeled anti-His antibody (Perkin Elmer) was used to specifically bind BRD4. […] Assays were performed in 50 mM Hepes (pH 7.5), 150 mM NaCl, 0.1 mg/ml BSA, 0.01% (v/v) Brij, 0.5% (v/v) DMSO and 10 nM labeled ligand at the following concentrations for each BRD4 isoform: 2 nM BRD4-1 and 0.5 nM BRD4-2. After an assay reaction time of 60 minutes at 25° C., binding was measured with 2 nM Eu-cryptate labeled anti-His antibody. TR-FRET signal was detected on an Envision plate reader (Ex: 320 nm; Em: 615/665 nm; 100 μs delay and 200 μs read window). […] All IC50 values represent geometric mean values of a minimum of four determinations. The IC50 values were converted to Ki values (dissociation constant for BRD4-inhibitor complex) using the Cheng and Prusoff equation for a competitive inhibitor mode of action. These assays generally produced results within 3-fold of the reported mean.
As for `Cc1noc(C)c1-c1cc(C(O)(c2ccccn2)c2ncccn2)c2nc(C3CC3)[nH]c2c1` (racemic) [Compound 1020-239, (R) and (S)-(2-cyclopropyl-6-(3,5-dimethylisoxazol-4-yl)-1H-benzo[d]imidazol-4-yl)(pyridin-2-yl)(pyrimidin-2-yl)methanol], the IC50 stood at 0.0059 µM.

Still in this assay, the particulars now being: 2 nM BRD4-1, 10 nM labeled ligand; IC50 converted to Ki by Cheng and Prusoff.
As to `Cc1noc(C)c1-c1cc(C(O)(c2cccnn2)C2CCCO2)c2nc(C3CC3)[nH]c2c1` (single isomer, unassigned) [Compound 1020-289, (2-cyclopropyl-6-(3,5-dimethylisoxazol-4-yl)-1H-benzo[d]imidazol-4-yl)(pyridazin-3-yl)(tetrahydrofuran-2-yl)methanol], the IC50 stood at 0.002 µM. Still for that read-out and setting: to `Cc1noc(C)c1-c1cc(C(O)(c2cccnn2)C2CCC(C)(C)O2)c2nc(C3CC3)[nH]c2c1` (single isomer, unassigned) [Compound 1020-298, (2-cyclopropyl-6-(3,5-dimethylisoxazol-4-yl)-1H-benzo[d]imidazol-4-yl)(5,5-dimethyltetrahydrofuran-2-yl)(pyridazin-3-yl)methanol] belongs 0.0054 µM.

The target in another assay is BRD4-2 (Homo sapiens (Human), UniProt O60885). As to the kind of experiment: BRD4-2 Ligand KI assay (TR-FRET, Cy5 labeled ligand displacement). In kind it is binding.
Conditions: not given
As to the method:
as §1, §2, §3
Background: TR-FRET usually uses a lanthanide donor and a delayed reading to cut background.
`Cc1noc(C)c1-c1cc(C(O)(c2ccccn2)c2ncccn2)c2nc(C3CC3)[nH]c2c1` (racemic) [Compound 1020-239, (R) and (S)-(2-cyclopropyl-6-(3,5-dimethylisoxazol-4-yl)-1H-benzo[d]imidazol-4-yl)(pyridin-2-yl)(pyrimidin-2-yl)methanol]: the IC50 came out at 0.006 µM.

The same assay, now with this note: 0.5 nM BRD4-2, 10 nM labeled ligand; IC50 converted to Ki by Cheng and Prusoff.
`Cc1noc(C)c1-c1cc(C(O)(c2cccnn2)C2CCCO2)c2nc(C3CC3)[nH]c2c1` (single isomer, unassigned) [Compound 1020-289, (2-cyclopropyl-6-(3,5-dimethylisoxazol-4-yl)-1H-benzo[d]imidazol-4-yl)(pyridazin-3-yl)(tetrahydrofuran-2-yl)methanol] returned an IC50 of 0.002 µM. On the same count and under the same terms, to `Cc1noc(C)c1-c1cc(C(O)(c2cccnn2)C2CCC(C)(C)O2)c2nc(C3CC3)[nH]c2c1` (single isomer, unassigned) [Compound 1020-298, (2-cyclopropyl-6-(3,5-dimethylisoxazol-4-yl)-1H-benzo[d]imidazol-4-yl)(5,5-dimethyltetrahydrofuran-2-yl)(pyridazin-3-yl)methanol] belongs 0.0036 µM.

Another assay has as its system MT-4 cells. The assay can be described thus: MT-4 proliferation assay. Conditions: Homo sapiens, MT4, 120 h; Table 1; 5 days, Cell Titer Glo; method text calls it EC50; read-out: MT4 Assay, (IC50). The assay is classed as cell-based, human. On the procedure:
MT-4 Proliferation Assay:
Compounds were tested in a standardized high-throughput 384-well assay format. Each compound was serially diluted 3-fold in 100% DMSO in polypropylene 384-well plates using a Biomek FX Workstation, and 0.4 μL compound added to an assay plate containing 40 μL RPMI media. Compounds were arranged in a horizontal pattern, with 10 concentrations per compound, and 8 compounds added per plate. Due to low DMSO tolerability, the final DMSO concentration never exceeded 0.5% (v/v). Each assay plate contained 10 μM Puromycin and 0.5% DMSO in RPMI-1640 as positive and negative controls respectively. MT-4 cells (HTLV-1 transformed, human T lymphoblastoid cells, NIH Aids Reagent program) were added in volumes of 35 μL per well and 2,000 cells per well using a Biotek uFlow Workstation (Biotek, Winooski, Vt.), and the plates subsequently incubated for 5 days at 37° C. in an incubator set at 5% CO2 and 90% humidity.
After 5 days, 22 μL Cell Titer Glo (Promega) was added to the assay plates with a Biotek uFlow Workstation. Plates were subsequently placed on a Perkin Elmer Envision Plate Reader for 5 minutes before the luminescence signal was read.
On the technique in general: ATP-based viability assays read luminescence as a measure of living cells.
In the case of `Cc1n[nH]c(C)c1-c1cc(-c2c(C)noc2C)cc2nc(N)[nH]c12` [Compound 1020-96, 4-(3,5-Dimethyl-1H-pyrazol-4-yl)-6-(3,5-dimethylisoxazol-4-yl)-1H-benzo[d]imidazol-2-amine], the half-inhibitory concentration (IC50) came to 0.318 µM. On to `Cc1noc(C)c1-c1cc(/C=C/c2ccccc2)c2[nH]c(C3CC3)nc2c1` [Compound 1020-37, (E)-4-(2-cyclopropyl-4-styryl-1H-benzo[d]imidazol-6-yl)-3,5-dimethylisoxazole], for which the IC50 was 0.518 µM. As for `CSc1nc2c(S(=O)(=O)NC3CCCC3)cc(-c3c(C)noc3C)cc2[nH]1` [Compound 1020-4, N-Cyclopentyl-6-(3,5-dimethylisoxazol-4-yl)-2-(methylthio)-1H-benzo[d]imidazole-4-sulfonamide], the IC50 was 0.192 µM. The same measure, in the same setting: the same measure for `Cc1noc(C)c1-c1cc(-c2cccnc2-c2ccccc2)c2nc(C3CC3)[nH]c2c1` [Compound 1020-19, 4-(2-Cyclopropyl-4-(2-phenylpyridin-3-yl)-1H-benzo[d]imidazol-6-yl)-3,5-dimethylisoxazole]: 0.0244 µM; for `Cc1n[nH]c(C)c1-c1cc(-c2c(C)noc2C)cc2[nH]c(NCC3CC3)nc12` [Compound 1020-79, N-(Cyclopropylmethyl)-4-(3,5-dimethyl-1H-pyrazol-4-yl)-6-(3,5-dimethylisoxazol-4-yl)-1H-benzo[d]imidazol-2-amine]: 0.0338 µM.

Consider `Cc1n[nH]c(C)c1-c1cc(-c2c(C)noc2C)cc2nc(C3CC3)n(C)c12` [Compound 1020-72, 4-(2-cyclopropyl-7-(3,5-dimethyl-1H-pyrazol-4-yl)-1-methyl-1H-benzo[d]imidazol-5-yl)-3,5-dimethylisoxazole], for which the IC50 was determined as 0.0065 µM. With `CCC1CCC(=O)N1c1cc(-c2c(C)noc2C)cc2[nH]c(C3CC3)nc12` (centres unmarked) [Compound 1020-137, 1-(2-Cyclopropyl-6-(3,5-dimethylisoxazol-4-yl)-1H-benzo[d]imidazol-4-yl)-5-ethylpyrrolidin-2-one], the half-inhibitory concentration (IC50) turned out to be 0.113 µM. Same read-out and setting: the same measure for `Cc1noc(C)c1-c1cc(C(O)(c2ccccc2)c2ccccc2)c2nc(C3CC3)[nH]c2c1` [Compound 1020-102, (2-Cyclopropyl-6-(3,5-dimethylisoxazol-4-yl)-1H-benzo[d]imidazol-4-yl)diphenylmethanol]: 0.0497 µM; for `Cc1n[nH]c(C)c1-c1cc(-c2c(C)noc2C)cc2nc(C3CC3(F)F)[nH]c12` (centres unmarked) [Compound 1020-78, 4-(2-(2,2-Difluorocyclopropyl)-7-(3,5-dimethyl-1H-pyrazol-4-yl)-1H-benzo[d]imidazol-5-yl)-3,5-dimethylisoxazole]: 0.0257 µM. Still for that read-out and setting: the same measure for `CCC(CC)c1cc(-c2c(C)noc2C)cc2[nH]c(C3CC3)nc12` [Compound 1020-120, 4-(2-Cyclopropyl-4-(pentan-3-yl)-1H-benzo[d]imidazol-6-yl)-3,5-dimethylisoxazole]: 0.0488 µM; for `Cc1nc2cc(-c3c(C)noc3C)cc(-c3c(C)n[nH]c3C)c2[nH]1` [Compound 1020-77, 4-(7-(3,5-Dimethyl-1H-pyrazol-4-yl)-2-methyl-1H-benzo[d]imidazol-5-yl)-3,5-dimethylisoxazole]: 0.0394 µM. On the same count and under the same terms, to `COc1nc2c(-c3c(C)ccc4ncccc34)cc(-c3c(C)noc3C)cc2[nH]1` [Compound 1020-90, 4-(2-methoxy-4-(6-methylquinolin-5-yl)-1H-benzo[d]imidazol-6-yl)-3,5-dimethylisoxazole] belongs 0.025 µM; to `Cc1cnn(C)c1-c1cc(-c2c(C)noc2C)cc2nc(C3CC3)[nH]c12` [Compound 1020-12, 4-(2-Cyclopropyl-7-(1,4-dimethyl-1H-pyrazol-5-yl)-1H-benzo[d]imidazol-5-yl)-3,5-dimethylisoxazole], 0.0213 µM. With `Cc1noc(C)c1-c1cc(NC2CCCC2)c2nc(C3CC3)[nH]c2c1` [Compound 1020-50, N-Cyclopentyl-2-cyclopropyl-6-(3,5-dimethylisoxazol-4-yl)-1H-benzo[d]imidazol-4-amine], the IC50 worked out at 0.353 µM. For `Cc1noc(C)c1-c1cc(S(=O)(=O)NC2CCCC2)c2nc(Cc3ccccc3)[nH]c2c1` [Compound 1020-141, 2-Benzyl-N-cyclopentyl-6-(3,5-dimethylisoxazol-4-yl)-1H-benzo[d]imidazole-4-sulfonamide], the IC50 turned out to be 0.887 µM.

Turning to `CCC(O)(CC)c1cc(-c2c(C)noc2C)cc2c1nc(C1CC1)n2C` [Compound 1020-132, 3-(2-Cyclopropyl-6-(3,5-dimethylisoxazol-4-yl)-1-methyl-1H-benzo[d]imidazol-4-yl)pentan-3-ol], the IC50 came out at 0.544 µM.

As to `Cc1noc(C)c1-c1cc(C(O)C2CCCC2)c2nc(C3CC3)[nH]c2c1` (centres unmarked) [Compound 1020-121, Cyclopentyl(2-cyclopropyl-6-(3,5-dimethylisoxazol-4-yl)-1H-benzo[d]imidazol-4-yl)methanol], the IC50 came out at 0.0428 µM.
